Test results: paper PMC8541546, “Identification of HLA-A2-Restricted Mutant Epitopes from Neoantigens of Esophageal Squamous Cell Carcinoma” (Vaccines, 2021)

Experiments:
[1] = biological target: T1, peptide/HLA-A*0201 complex (Homo sapiens, UniProt P04439, D140Y/D185E/D98H/E176V/E277Q/G131W/G231S/I119V/I121R/I166T/I218V/L300P/L318F/N151K/N90K/P208A/P217A/Q86G/Q94H/R138H/R169H/T345S); experiment: peptide/MHC complex stabilization assay on T2A2 cells; format: binding; conditions: T2A2 cells pulsed with 50 μg/mL peptide and 3 μg/mL β2-M 18 h, BFA 1 h; MFI at 0, 2, 4, 6 h; time of half losing MFI of 0 h
T1 construct: T2A2 cells (TAP-deficient HLA-A2 molecules overexpressing, cultured in IMDM medium); β2-M from Merck; host or cells: T2A2 cells
Method: For the stabilization test, T2A2 cells were pulsed with 50 μg/mL mutant peptide and 3 μg/mL β2-Microglobulin (β2-M, Merck, Kenilworth, NJ, USA) in IMDM (serum-free) medium for 18 h. After three times washing, free peptides were removed and brefeldin A (BFA, 10 μg/mL, BD Bioscience, San Diego, CA, USA) was added. BFA was removed after 1 h impeding, and the cells were incubated for additional time. Finally, T2A2 was marked with anti-human HLA-A2 PE-Cyanine7 for 30 min, then analyzed by FACS Calibur (BD Bioscience, USA). MFI of 0 h was set as 100%, and the time of half losing MFI of 0 h defined the dissociation complex 50 (DC50). DC50 was computed as follows: (MFI of 0 h-MFI of (2, 4, or 6 h))/MFI of 0 h × 100%.

KYSE140-MUT cells [2] = experiment: Intracellular cytokine staining (IFN-γ) of CTLs from immunized Tg mice; format: in vivo, HLA-A2.1/K^b Tg mice; conditions: 100 μg/mouse s.c. with CpG ODN 1826 once a week for three weeks; spleen lymphocytes re-stimulated with MUT peptide; KYSE140-MUT target cells; n = 5 per group
Method: (§1) To investigate whether neoepitopes could induce a peptide-specific T cell response in vivo, HLA-A2.1/K^b Tg mice were used and immunized according to the procedure de-scribed previously. In brief, mutant peptides or WH-mutant peptides (100 μg per mouse) with CpG-ODN 1826 (30 μg per mouse) were injected s.c. in the back of HLA-A2.1/K^b Tg mice (five mice per group, randomly grouped) once a week for three weeks. The normal saline (NS) group was immunized s.c. only with CpG ODN 1826 (30 μg/mouse) once a week for three weeks. Five days after the last injection, spleen lymphocytes were isolated and cultured at the concentration of 5 × 10^6 cells/mL in RPMI 1640 medium. These cells were induced by the same mutant peptides (10 μg/mL) that were used for in vivo stimulation and mIL-2 (30 U/mL) for a week. Intracellular cytokine staining assay (ICS) and cytotoxic assay (E: T ratios = 20:1, 40:1, 80:1) were performed after a week induced in vitro [22].
To test the MUT peptides stimulation of CTL response in vivo, peptide-specific T cells induced from Tg mice were co-cultured with tumor cell lines transfected with WT or MUT minigenes, as described in the in vitro assay. […] Intracellular cytokines were marked by anti-mouse IFN-γ or anti-mouse granzyme B, respectively, and analyzed by flow cytometry (BD FACSCelesta™, USA).

KYSE140-MUT cells [3] = experiment: Intracellular staining (granzyme B) of CTLs from immunized Tg mice; format: in vivo, HLA-A2.1/K^b Tg mice; conditions: 100 μg/mouse s.c. with CpG ODN 1826 once a week for three weeks; spleen lymphocytes re-stimulated with MUT peptide; KYSE140-MUT target cells; n = 5 per group
Method: as §1
To test the MUT peptides stimulation of CTL response in vivo, peptide-specific T cells induced from Tg mice were co-cultured with tumor cell lines transfected with WT or MUT minigenes, as described in the in vitro assay. These T cells were marked by surface marker antibodies anti-mouse CD3 and CD8α before fixation and permeabilization. Intracellular cytokines were marked by anti-mouse IFN-γ or anti-mouse granzyme B, respectively, and analyzed by flow cytometry (BD FACSCelesta™, USA).

KYSE140-MUT cells [4] = experiment: Cytotoxicity assay (Cell Trace Far Red) of CTLs from immunized Tg mice; format: in vivo, HLA-A2.1/K^b Tg mice; conditions: KYSE140-MUT group, E/T of 80:1, 4 h
Method: as §1
The cytotoxicity of peptide-specific T cells stimulated by mutant peptides was tested by using Cell Trace Far Red (Thermo Scientific, USA). Transfected cells were suspended in PBS (1 × 10^6 cells/mL) and labelled with Cell Trace Far Red as follows: Control target cells and test target cells were marked by 50 μM and 1 mM Cell Trace Far Red, respectively, at 37 °C for 20 min, protected from light. After incubation, target cells were washed with complete media at 37 °C for 5 min. […] Subsequently, test target cells were mixed with control target cells in a tube, washed once, and analyzed by flow cytometry. Specific lysis (%) = (numbers of control target cells—numbers of test target cells)/numbers of control target cells × 100% [28, 29], where, for tumor cells, the control target cells refer to KYSE140-WT cells marked with 50 μM Cell Trace Far Red, and the test target cell refers to KYSE140-WT or KYSE140-MUT cells marked with 1 mM Cell Trace Far Red, respectively (peptide-specific T cells generated from donors G–K’s PBMCs in vitro or generated from spleen lymphocytes of HLA-A2.1/K^b Tg mice in vivo). […]

Question: What does the source list for LLGPNSFEV [TP53-R267P]?
Answer: DC50 (dissociation complex 50) [1]: >6 h; IFN-γ secretion of CTLs (IFN-γ+ CD8+ T cells) (KYSE140-MUT cells [2]): 1.1%; granzyme B expression of CTLs (KYSE140-MUT cells [3]): 0.7%; lysis rate (specific lysis) (KYSE140-MUT cells [4]): 71.5%

Question: Which “DC50 (dissociation complex 50)” value [1] does the source give for ILWRQDINL [NFE2L2-D13N] here?
Answer: >6 h

Question: And the “IFN-γ secretion of CTLs (IFN-γ+ CD8+ T cells)” value (KYSE140-MUT cells [2])?
Answer: 1.5%

Question: What about the “granzyme B expression of CTLs” value (KYSE140-MUT cells [3]) of the same sequence?
Answer: 2.3%

Question: And the “lysis rate (specific lysis)” value (KYSE140-MUT cells [4])?
Answer: 69.5%

Question: With QVTDFLAPL [PCLO-E4090Q] as the sequence, how does the “DC50 (dissociation complex 50)” value [1] read?
Answer: >4 h

Question: And the “granzyme B expression of CTLs” value (KYSE140-MUT cells [3])?
Answer: 1.5%

Question: What about the “lysis rate (specific lysis)” value (KYSE140-MUT cells [4]) of the same sequence?
Answer: 76.7%
